# ChEMBL document CHEMBL5291721, “A preclinical secondary pharmacology resource illuminates target-adverse drug reaction associations of marketed drugs” (Nat Commun, 2023)
# How the values were obtained:
# D(4) dopamine receptor = biological target: T1, D(4) dopamine receptor (Homo sapiens, UniProt P21917)
# T1 sequence (P21917 whole entry): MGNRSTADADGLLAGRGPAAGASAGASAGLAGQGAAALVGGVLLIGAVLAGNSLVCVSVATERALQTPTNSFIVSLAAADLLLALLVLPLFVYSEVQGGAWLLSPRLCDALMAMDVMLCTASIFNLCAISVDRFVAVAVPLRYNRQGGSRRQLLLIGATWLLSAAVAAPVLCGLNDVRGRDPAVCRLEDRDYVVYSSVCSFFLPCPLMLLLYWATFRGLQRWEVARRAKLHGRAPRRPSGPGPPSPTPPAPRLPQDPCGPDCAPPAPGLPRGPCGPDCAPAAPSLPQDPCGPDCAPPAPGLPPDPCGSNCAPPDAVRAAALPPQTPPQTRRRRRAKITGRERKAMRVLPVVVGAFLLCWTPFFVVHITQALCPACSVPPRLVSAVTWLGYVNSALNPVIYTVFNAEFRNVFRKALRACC
# Estrogen receptor beta = Estrogen receptor beta (Homo sapiens, UniProt Q92731)
# [1] = biological target: Hydroxycarboxylic acid receptor 2 (Homo sapiens, UniProt Q8TDS4)
# Substance-P receptor = Substance-P receptor (Homo sapiens, UniProt P25103)
# [2] = biological target: Gamma-aminobutyric acid type B receptor subunit 1 (Homo sapiens, UniProt Q9UBS5)
# [3] = biological target: T2, Muscarinic acetylcholine receptor M4 (Homo sapiens, UniProt P08173)
# T2 sequence (P08173 whole entry): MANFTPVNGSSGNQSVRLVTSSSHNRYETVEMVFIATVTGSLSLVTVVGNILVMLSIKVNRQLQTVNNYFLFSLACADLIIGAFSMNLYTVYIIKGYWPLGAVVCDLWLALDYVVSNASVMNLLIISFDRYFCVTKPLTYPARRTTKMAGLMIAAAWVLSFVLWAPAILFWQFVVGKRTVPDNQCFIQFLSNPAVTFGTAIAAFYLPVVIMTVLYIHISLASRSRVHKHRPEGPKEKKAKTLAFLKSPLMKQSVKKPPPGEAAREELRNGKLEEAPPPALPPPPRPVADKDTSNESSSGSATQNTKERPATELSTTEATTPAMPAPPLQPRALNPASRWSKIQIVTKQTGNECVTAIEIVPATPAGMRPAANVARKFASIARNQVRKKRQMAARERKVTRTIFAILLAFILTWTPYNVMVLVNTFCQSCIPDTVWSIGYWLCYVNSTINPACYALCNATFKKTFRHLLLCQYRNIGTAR
# [4] = biological target: T3, Muscarinic acetylcholine receptor M5 (Homo sapiens, UniProt P08912)
# T3 sequence (P08912 whole entry): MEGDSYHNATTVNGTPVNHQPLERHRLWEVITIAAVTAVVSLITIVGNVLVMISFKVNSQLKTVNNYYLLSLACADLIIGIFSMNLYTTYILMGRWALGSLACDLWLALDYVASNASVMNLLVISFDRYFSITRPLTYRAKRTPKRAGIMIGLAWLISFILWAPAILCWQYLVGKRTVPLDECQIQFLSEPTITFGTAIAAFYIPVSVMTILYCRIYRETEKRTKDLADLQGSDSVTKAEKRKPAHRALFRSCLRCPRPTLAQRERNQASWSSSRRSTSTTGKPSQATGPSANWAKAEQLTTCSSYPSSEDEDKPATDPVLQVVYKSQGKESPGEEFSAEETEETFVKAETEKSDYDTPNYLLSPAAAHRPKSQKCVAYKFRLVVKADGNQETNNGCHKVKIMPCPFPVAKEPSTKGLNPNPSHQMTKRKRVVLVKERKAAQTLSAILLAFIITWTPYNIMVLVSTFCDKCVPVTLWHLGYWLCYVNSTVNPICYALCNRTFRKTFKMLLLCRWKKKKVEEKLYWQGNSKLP
# D(1B) dopamine receptor = D(1B) dopamine receptor (Homo sapiens, UniProt P21918)
# [5] = biological target: 5-hydroxytryptamine receptor 5A (Homo sapiens, UniProt P47898)
# [6] = biological target: 5-hydroxytryptamine receptor 7 (Homo sapiens, UniProt P34969)
# [7] = biological target: Rod cGMP-specific 3',5'-cyclic phosphodiesterase subunit alpha (Homo sapiens, UniProt P16499); format: functional
# Substance-K receptor = biological target: T4, Substance-K receptor (Homo sapiens, UniProt P21452)
# T4 sequence (P21452 whole entry): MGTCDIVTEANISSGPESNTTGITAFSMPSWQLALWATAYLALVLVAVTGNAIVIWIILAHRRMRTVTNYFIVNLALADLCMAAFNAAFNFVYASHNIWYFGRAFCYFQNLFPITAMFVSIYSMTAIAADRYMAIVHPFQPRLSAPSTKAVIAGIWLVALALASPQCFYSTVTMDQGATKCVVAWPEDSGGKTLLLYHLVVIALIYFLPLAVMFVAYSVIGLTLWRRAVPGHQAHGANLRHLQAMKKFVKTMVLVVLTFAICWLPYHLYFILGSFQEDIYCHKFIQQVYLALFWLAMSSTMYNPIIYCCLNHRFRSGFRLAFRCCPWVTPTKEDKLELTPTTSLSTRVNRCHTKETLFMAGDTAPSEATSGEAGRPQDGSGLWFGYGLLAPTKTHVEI
# [8] = biological target: Sodium channel protein type 5 subunit alpha (Homo sapiens, UniProt Q14524); format: functional, cell-based
# [9] = biological target: Voltage-dependent L-type calcium channel subunit alpha-1C (Homo sapiens, UniProt Q13936); format: functional, cell-based
# D(1A) dopamine receptor = D(1A) dopamine receptor (Homo sapiens, UniProt P21728)
# [10] = biological target: Sodium-dependent dopamine transporter (Homo sapiens, UniProt Q01959)
# Thromboxane A2 receptor = biological target: T5, Thromboxane A2 receptor (Homo sapiens, UniProt P21731); format: functional, cell-based
# T5 sequence (P21731 whole entry): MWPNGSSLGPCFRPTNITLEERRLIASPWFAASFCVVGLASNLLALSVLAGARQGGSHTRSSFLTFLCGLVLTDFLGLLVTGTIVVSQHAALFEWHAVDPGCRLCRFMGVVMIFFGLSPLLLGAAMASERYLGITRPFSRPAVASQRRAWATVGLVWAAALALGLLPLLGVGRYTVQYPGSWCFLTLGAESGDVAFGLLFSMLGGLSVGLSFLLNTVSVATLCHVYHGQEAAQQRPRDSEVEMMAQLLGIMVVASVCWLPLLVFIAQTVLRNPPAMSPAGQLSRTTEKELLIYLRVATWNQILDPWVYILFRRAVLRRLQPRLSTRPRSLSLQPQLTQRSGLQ
# Note: assay procedure not described here.
# Chain of Sodium channel protein type 5 subunit alpha (Q14524 whole entry): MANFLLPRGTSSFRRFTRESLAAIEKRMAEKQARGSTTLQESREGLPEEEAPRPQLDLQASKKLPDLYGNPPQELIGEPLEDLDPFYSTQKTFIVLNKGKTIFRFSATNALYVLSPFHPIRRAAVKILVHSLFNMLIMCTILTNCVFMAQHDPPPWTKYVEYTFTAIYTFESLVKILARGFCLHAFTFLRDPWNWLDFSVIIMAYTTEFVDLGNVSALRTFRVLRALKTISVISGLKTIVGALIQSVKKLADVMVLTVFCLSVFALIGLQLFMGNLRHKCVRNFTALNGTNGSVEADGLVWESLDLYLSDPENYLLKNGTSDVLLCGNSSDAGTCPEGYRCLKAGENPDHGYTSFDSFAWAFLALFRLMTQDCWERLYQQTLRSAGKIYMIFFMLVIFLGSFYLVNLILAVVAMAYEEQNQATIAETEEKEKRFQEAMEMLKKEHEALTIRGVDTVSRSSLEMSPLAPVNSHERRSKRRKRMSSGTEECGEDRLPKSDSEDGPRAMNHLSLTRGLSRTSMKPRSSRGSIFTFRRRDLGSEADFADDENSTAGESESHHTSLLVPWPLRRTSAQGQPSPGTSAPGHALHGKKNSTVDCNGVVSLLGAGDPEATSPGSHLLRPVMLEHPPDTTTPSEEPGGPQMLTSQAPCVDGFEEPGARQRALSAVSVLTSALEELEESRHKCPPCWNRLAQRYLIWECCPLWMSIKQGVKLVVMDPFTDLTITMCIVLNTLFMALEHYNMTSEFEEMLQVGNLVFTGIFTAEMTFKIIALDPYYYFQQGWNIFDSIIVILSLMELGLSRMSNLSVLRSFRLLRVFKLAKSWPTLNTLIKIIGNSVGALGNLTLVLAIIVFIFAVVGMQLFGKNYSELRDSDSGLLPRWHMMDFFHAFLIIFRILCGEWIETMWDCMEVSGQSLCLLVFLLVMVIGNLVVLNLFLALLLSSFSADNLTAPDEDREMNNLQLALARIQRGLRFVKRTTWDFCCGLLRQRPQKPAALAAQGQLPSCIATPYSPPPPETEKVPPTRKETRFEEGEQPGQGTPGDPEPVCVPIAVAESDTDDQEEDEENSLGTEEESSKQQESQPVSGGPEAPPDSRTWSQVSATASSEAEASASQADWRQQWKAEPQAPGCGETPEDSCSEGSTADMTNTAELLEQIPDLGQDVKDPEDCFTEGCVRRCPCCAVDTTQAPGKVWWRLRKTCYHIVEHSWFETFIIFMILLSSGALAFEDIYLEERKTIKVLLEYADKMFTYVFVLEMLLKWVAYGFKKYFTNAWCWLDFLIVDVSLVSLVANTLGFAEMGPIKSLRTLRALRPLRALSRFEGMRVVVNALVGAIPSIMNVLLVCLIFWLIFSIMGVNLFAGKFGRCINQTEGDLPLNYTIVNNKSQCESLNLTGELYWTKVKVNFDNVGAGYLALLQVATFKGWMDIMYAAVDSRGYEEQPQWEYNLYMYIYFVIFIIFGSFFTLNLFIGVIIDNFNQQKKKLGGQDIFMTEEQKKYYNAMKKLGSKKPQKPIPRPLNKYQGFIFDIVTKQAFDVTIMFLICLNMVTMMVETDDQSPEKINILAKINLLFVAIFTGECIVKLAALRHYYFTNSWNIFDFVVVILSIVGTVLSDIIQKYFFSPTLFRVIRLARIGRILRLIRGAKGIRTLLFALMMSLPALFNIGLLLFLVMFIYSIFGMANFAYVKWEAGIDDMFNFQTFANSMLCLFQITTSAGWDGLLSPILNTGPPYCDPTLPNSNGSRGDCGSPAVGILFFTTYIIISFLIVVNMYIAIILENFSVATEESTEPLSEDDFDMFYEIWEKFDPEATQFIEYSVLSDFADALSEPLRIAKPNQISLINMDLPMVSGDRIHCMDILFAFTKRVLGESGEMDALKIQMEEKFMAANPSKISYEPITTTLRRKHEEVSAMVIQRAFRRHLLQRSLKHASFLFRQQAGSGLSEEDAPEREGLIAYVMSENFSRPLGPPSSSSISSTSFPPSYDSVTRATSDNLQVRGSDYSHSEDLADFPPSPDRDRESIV
# Chain of Gamma-aminobutyric acid type B receptor subunit 1 (Q9UBS5 whole entry): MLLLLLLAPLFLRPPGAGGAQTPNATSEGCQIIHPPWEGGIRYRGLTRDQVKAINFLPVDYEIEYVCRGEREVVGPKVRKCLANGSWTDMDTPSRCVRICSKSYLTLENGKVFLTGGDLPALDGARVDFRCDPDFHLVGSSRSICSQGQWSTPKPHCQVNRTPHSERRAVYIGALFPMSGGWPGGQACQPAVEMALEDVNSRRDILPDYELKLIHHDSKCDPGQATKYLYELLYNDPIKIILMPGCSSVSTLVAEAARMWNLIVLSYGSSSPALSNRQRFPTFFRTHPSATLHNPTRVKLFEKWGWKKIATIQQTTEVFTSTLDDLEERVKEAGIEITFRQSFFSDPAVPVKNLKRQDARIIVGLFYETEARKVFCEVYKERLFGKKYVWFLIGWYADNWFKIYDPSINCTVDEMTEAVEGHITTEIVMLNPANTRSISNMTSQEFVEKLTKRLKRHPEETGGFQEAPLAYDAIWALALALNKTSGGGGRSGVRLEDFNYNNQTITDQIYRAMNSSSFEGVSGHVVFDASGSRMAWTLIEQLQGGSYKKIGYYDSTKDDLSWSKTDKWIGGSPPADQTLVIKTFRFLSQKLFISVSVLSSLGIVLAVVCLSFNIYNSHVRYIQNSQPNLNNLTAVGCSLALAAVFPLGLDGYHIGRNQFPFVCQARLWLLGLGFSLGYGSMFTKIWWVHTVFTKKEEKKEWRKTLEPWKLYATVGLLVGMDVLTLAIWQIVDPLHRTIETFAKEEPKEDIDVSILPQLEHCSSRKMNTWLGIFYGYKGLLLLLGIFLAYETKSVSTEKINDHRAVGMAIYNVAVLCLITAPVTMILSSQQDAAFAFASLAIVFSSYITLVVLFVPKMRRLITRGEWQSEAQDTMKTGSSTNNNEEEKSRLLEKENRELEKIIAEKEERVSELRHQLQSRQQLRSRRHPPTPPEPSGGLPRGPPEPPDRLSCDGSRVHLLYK
# Chain of 5-hydroxytryptamine receptor 5A (P47898 whole entry): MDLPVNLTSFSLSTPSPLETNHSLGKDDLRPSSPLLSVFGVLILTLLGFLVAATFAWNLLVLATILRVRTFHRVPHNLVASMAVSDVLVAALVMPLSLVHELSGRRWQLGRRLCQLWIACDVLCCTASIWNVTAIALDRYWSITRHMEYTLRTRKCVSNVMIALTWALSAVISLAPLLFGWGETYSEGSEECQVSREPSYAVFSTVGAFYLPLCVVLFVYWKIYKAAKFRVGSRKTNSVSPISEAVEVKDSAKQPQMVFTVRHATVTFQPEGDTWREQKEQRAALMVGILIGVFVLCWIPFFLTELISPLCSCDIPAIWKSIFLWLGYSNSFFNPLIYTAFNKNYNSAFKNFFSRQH
# Chain of Substance-P receptor (P25103 whole entry): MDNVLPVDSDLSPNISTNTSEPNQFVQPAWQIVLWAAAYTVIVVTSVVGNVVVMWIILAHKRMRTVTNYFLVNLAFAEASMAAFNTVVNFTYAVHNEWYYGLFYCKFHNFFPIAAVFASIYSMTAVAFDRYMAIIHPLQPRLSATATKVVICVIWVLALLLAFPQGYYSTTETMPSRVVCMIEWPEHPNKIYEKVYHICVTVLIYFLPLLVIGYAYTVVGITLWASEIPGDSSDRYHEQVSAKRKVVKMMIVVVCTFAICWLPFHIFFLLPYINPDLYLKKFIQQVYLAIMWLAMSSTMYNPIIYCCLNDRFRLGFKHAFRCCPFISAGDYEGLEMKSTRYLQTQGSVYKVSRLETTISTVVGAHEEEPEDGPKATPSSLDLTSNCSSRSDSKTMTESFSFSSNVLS
# Chain of Estrogen receptor beta (Q92731 whole entry): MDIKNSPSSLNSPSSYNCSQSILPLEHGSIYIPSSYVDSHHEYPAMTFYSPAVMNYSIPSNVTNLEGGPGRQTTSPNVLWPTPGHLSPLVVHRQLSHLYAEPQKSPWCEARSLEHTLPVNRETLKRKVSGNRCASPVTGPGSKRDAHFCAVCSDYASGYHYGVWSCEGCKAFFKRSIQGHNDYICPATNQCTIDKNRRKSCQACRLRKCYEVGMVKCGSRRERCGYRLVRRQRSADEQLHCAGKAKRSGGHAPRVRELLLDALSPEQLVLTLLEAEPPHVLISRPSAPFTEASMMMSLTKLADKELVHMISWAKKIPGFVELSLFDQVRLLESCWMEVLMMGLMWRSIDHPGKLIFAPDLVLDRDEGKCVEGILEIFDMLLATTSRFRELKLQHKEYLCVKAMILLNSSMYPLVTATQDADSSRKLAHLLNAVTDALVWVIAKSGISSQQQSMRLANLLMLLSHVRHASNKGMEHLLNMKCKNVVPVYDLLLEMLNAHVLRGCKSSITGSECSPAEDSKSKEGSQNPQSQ
# Chain of 5-hydroxytryptamine receptor 7 (P34969 whole entry): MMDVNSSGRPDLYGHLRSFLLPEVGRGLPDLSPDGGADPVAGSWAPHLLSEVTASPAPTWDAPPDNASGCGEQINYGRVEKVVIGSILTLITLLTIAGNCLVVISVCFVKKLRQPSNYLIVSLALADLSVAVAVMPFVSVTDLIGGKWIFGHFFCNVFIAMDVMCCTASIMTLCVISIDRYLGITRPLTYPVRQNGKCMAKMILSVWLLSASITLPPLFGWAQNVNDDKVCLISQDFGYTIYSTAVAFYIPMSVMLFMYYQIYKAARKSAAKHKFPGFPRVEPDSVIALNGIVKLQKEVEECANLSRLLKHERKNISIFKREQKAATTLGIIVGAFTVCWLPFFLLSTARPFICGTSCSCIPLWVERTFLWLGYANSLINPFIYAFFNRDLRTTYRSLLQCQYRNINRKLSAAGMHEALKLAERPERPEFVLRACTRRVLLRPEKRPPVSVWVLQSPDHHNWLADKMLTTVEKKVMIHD
Molecule,AC50 (D(4) dopamine receptor),AC50 (Estrogen receptor beta),AC50 (Substance-P receptor),AC50 [2],AC50 [6],AC50 [8],further results
COc1ccc2cccc(CCNC(C)=O)c2c1 [AGOMELATINE],> 10 µM,> 30 µM,> 10 µM,,,,AC50 [1]: > 10 µM
CN1CCc2cccc3c2[C@H]1Cc1ccc(O)c(O)c1-3 [APOMORPHINE],,> 30 µM,,,,,
CC(C)c1c(C(=O)Nc2ccccc2)c(-c2ccccc2)c(-c2ccc(F)cc2)n1CC[C@@H](O)C[C@@H](O)CC(=O)O [ATORVASTATIN],,,,> 10 µM,,,
CN(C)C(=O)OC1N=C(c2ccccc2)c2cc(Cl)ccc2N(C)C1=O (configuration not stated) [CAMAZEPAM],> 10 µM,> 30 µM,> 10 µM,> 10 µM,> 10 µM,,AC50 [3]: > 10 µM; AC50 [4]: > 10 µM; AC50 (D(1B) dopamine receptor): > 10 µM; AC50 [5]: > 10 µM; AC50 [7]: > 10 µM; AC50 (Substance-K receptor): > 10 µM
[H]/N=C(/N)c1ccc(NCc2nc3cc(C(=O)N(CCC(=O)O)c4ccccn4)ccc3n2C)cc1 [DABIGATRAN],,,,,,> 30 µM,
CCCCOc1cc(C(=O)NCCN(CC)CC)c2ccccc2n1 [DIBUCAINE],,,,,,1.8 µM,AC50 [9]: 22 µM
CN[C@@H](C)[C@H](O)c1ccccc1 [EPHEDRINE],> 10 µM,> 30 µM,> 10 µM,,,> 30 µM,AC50 [1]: > 10 µM
CCNC(C)Cc1cccc(C(F)(F)F)c1 (configuration not stated) [FENFLURAMINE],,,> 10 µM,> 10 µM,,,
CCCCCN(C)CCC(O)(P(=O)(O)O)P(=O)(O)O [IBANDRONIC ACID],> 10 µM,> 30 µM,> 10 µM,,> 10 µM,,
COC(=O)C1=C(C)NC(C)=C(C(=O)OC(C)C)C1c1cccc2nonc12 (configuration not stated) [ISRADIPINE],,,,,,2.98 µM,
Cc1cc(-c2ccccc2)nnc1NCCN1CCOCC1 [MINAPRINE],> 10 µM,> 30 µM,> 10 µM,,,,AC50 [1]: > 10 µM
NC(=O)C[S+]([O-])C(c1ccccc1)c1ccccc1 (configuration not stated) [MODAFINIL],> 10 µM,> 30 µM,> 10 µM,> 10 µM,> 10 µM,,AC50 [3]: > 10 µM; AC50 [4]: > 10 µM; AC50 (D(1B) dopamine receptor): > 10 µM; AC50 [5]: > 10 µM; AC50 [7]: > 10 µM; AC50 (Substance-K receptor): > 10 µM
O=C(O)CCCc1ccccc1 [PHENYLBUTANOIC ACID],> 10 µM,> 30 µM,> 10 µM,> 10 µM,> 10 µM,,AC50 [3]: > 10 µM; AC50 [4]: > 10 µM; AC50 (Substance-K receptor): > 10 µM
CC(Cc1ccccc1)NCCC(c1ccccc1)c1ccccc1 (configuration not stated) [PRENYLAMINE],,,,,,7.1 µM,AC50 [9]: 47 µM
Nc1nc2ccc(OC(F)(F)F)cc2s1 [RILUZOLE],,,,,,,AC50 [9]: > 50 µM; AC50 (D(1A) dopamine receptor): > 30 µM; AC50 [10]: 18.7 µM; AC50 (Thromboxane A2 receptor): > 30 µM
O=C1NCCN1CCN1CCC(c2cn(-c3ccc(F)cc3)c3ccc(Cl)cc23)CC1 [SERTINDOLE],,,,,,21 µM,AC50 [9]: > 50 µM
Cc1c(C(=O)Nc2ccc(N3C[C@@H](C)O[C@@H](C)C3)nc2)cccc1-c1ccc(OC(F)(F)F)cc1 [SONIDEGIB],> 10 µM,> 30 µM,> 10 µM,,,,
Cc1ccc(-c2nc3ccc(C)cn3c2CC(=O)N(C)C)cc1 [ZOLPIDEM],> 10 µM,,> 10 µM,> 10 µM,> 10 µM,,AC50 [3]: > 10 µM; AC50 [4]: > 10 µM; AC50 (D(1B) dopamine receptor): > 10 µM; AC50 [5]: > 10 µM; AC50 [7]: > 10 µM; AC50 (Substance-K receptor): > 10 µM
CN1CCN(C(=O)OC2c3nccnc3C(=O)N2c2ccc(Cl)cn2)CC1 (configuration not stated) [ZOPICLONE],> 10 µM,> 30 µM,,,> 10 µM,,
BIVALIRUDIN,,,,,,,AC50 (D(1A) dopamine receptor): > 30 µM; AC50 [10]: > 30 µM; AC50 (Thromboxane A2 receptor): > 30 µM
